Measurements as given in patent US20250034136A1 (Nimbus Wadjet, Inc., priority 2023, published 2025).
Like-named read-outs stand apart in the source and are kept apart here.

How the values were obtained:
[1] = molecular target: WRN (BV08), human Werner helicase (Uniprot Q14191, amino acids 517-1235 with L1074F point mutation) (Homo sapiens (Human), UniProt Q14191, L1074F); assay: WRN (BV08) ADP-Glo assay; format: biochemical; conditions: class symbols A-E, read-out: ADP-Glo_hWRN_IC50
[2] = test system: p21 induction in HCT116 cells; assay: p21 induction in HCT116 cells; format: cell-based; conditions: HCT116 cells, 24 h compound incubation, read-out: P21_EC50
How it was run: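 HCT116 cells, 2,000/well, treated 24 h at 37 °C with 11-point compound dilutions in duplicate. Fixed, then immunostained for p21 and GAPDH and read by near-IR imaging at 800/700 nm. Normalized to DMSO (low) and reference WRN inhibitor (high) controls; EC50 from non-linear regression.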

WRN (BV08), human Werner helicase (Uniprot Q14191, amino acids 517-1235 with L1074F point mutation), sequence (Q14191 other isoform, or with tags, fused parts or gaps L1074F (already in the parent)): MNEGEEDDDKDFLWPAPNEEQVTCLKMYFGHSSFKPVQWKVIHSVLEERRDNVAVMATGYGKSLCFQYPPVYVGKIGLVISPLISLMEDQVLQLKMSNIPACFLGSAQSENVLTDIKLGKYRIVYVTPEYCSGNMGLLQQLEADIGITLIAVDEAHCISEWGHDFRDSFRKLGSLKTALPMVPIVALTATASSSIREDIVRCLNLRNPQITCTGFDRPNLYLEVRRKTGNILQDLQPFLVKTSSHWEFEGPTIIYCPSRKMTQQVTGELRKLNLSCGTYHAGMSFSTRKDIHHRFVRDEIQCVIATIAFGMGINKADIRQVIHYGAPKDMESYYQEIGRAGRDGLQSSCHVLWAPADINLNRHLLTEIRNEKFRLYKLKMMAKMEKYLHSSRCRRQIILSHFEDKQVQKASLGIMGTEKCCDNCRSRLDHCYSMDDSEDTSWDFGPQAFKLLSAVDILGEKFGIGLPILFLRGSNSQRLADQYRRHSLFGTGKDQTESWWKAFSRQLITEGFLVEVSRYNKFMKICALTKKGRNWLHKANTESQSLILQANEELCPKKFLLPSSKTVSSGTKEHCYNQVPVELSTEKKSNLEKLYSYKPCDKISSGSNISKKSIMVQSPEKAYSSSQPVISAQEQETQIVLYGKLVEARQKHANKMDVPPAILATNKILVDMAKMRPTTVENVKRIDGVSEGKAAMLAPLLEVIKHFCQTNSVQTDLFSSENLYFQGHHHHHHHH

IC50 [1]	EC50 [2]	EC50 ([2]; Homo sapiens, HCT-116, 24 h)	Structure (SMILES)
50 to 100 nM	> 5000 nM	–	CCc1c(N2CCN(C(=O)c3ncnc(C)c3O)[C@H]3CC[C@@H]32)c(=O)c2nc(NC)cnc2n1CC(=O)Nc1ccc(C(F)(F)F)cc1Cl (single isomer, unassigned) [I-171, N-(2-chloro-4-(trifluoromethyl)phenyl)-2-(6-ethyl-7-(5-(5-hydroxy-6-methylpyrimidine-4-carbonyl)-2,5-diazabicyclo[4.2.0]octan-2-yl)-2-(methylamino)-8-oxopyrido[2,3-b]pyrazin-5(8H)-yl)acetamide]
5 to 50 nM	> 5000 nM	–	CCc1c(N2CCN(C(=O)c3ncnc(C)c3O)[C@@H](COC)C2)c(=O)c2nc(N(C)C)cnc2n1CC(=O)Nc1ccc(C(F)(F)F)cc1Cl (single isomer, unassigned) [I-96, N-(2-chloro-4-(trifluoromethyl)phenyl)-2-(2-(dimethylamino)-6-ethyl-7-(4-(5-hydroxy-6-methylpyrimidine-4-carbonyl)-3-(methoxymethyl)piperazin-1-yl)-8-oxopyrido[2,3-b]pyrazin-5(8H)-yl)acetamide]
5 to 50 nM	–	> 5000 nM	CCc1c(N2CCN(C(=O)c3ncnc(C)c3O)CC2)c(=O)c2nc(N(C)CCO)cnc2n1CC(=O)Nc1ccc(C(F)(F)F)cc1Cl [I-73, N-(2-chloro-4-(trifluoromethyl)phenyl)-2-(6-ethyl-7-(4-(5-hydroxy-6-methylpyrimidine-4-carbonyl)piperazin-1-yl)-2-((2-hydroxyethyl)(methyl)amino)-8-oxopyrido[2,3-b]pyrazin-5(8H)-yl)acetamide]
5 to 50 nM	–	< 500 nM	CCc1c(N2CCN(C(=O)c3ncnc(C)c3O)[C@H]3CCC[C@@H]32)c(=O)c2nc3cc(C)oc3nc2n1CC(=O)Nc1ccc(C(F)(F)F)cc1Cl [I-123, 2-{11-[(4aS,7aS)-4-(5-hydroxy-6-methylpyrimidine-4-carbonyl)-octahydro-1H-cyclopenta[b]pyrazin-1-yl]-12-ethyl-5-methyl-10-oxo-4-oxa-2,8,13-triazatricyclo[7.4.0.0^{3,7}]trideca-1,3(7),5,8,11-pentaen-13-yl}-N-[2-chloro-4-(trifluoromethyl)phenyl]acetamide]
5 to 50 nM	–	2000 to 5000 nM	CCc1c(N2CCN(C(=O)c3ncnc(C)c3O)CC2)c(=O)c2nc(N(C)CC(F)F)cnc2n1CC(=O)Nc1ccc(C(F)(F)F)cc1Cl [I-167, N-[2-chloro-4-(trifluoromethyl)phenyl]-2-{2-[(2,2-difluoroethyl)(methyl)amino]-6-ethyl-7-[4-(5-hydroxy-6-methylpyrimidine-4-carbonyl)piperazin-1-yl]-8-oxo-5H,8H-pyrido[2,3-b]pyrazin-5-yl}acetamide]
5 to 50 nM	–	> 5000 nM	CCc1c(N2CCN(C(=O)c3ncnc(C)c3O)CC2)c(=O)c2nc(N3CCn4nccc43)cnc2n1CC(=O)Nc1ccc(C(F)(F)F)cc1Cl [I-91, N-(2-chloro-4-(trifluoromethyl)phenyl)-2-(2-(2,3-dihydro-1H-imidazo[1,2-b]pyrazol-1-yl)-6-ethyl-7-(4-(5-hydroxy-6-methylpyrimidine-4-carbonyl)piperazin-1-yl)-8-oxopyrido[2,3-b]pyrazin-5(8H)-yl)acetamide]
100 to 500 nM	–	> 5000 nM	CCc1c(N2CCN(C(=O)c3ncnc(C)c3O)CC2)c(=O)c2nc(C(=O)NC)cnc2n1CC(=O)Nc1ccc(C(F)(F)F)cc1Cl [I-54, 5-(2-((2-chloro-4-(trifluoromethyl)phenyl)amino)-2-oxoethyl)-6-ethyl-7-(4-(5-hydroxy-6-methylpyrimidine-4-carbonyl)piperazin-1-yl)-N-methyl-8-oxo-5,8-dihydropyrido[2,3-b]pyrazine-2-carboxamide]
50 to 100 nM	–	> 5000 nM	CCc1c(N2CCN(C(=O)c3ncnc(C)c3O)CC2)c(=O)c2nc(C(C)(C)O)c(C)nc2n1CC(=O)Nc1ccc(C(F)(F)F)cc1Cl [I-22, N-(2-chloro-4-(trifluoromethyl)phenyl)-2-(6-ethyl-7-(4-(5-hydroxy-6-methylpyrimidine-4-carbonyl)piperazin-1-yl)-2-(2-hydroxypropan-2-yl)-3-methyl-8-oxopyrido[2,3-b]pyrazin-5(8H)-yl)acetamide]
≤ 5 nM	–	< 500 nM	CCc1c(N2CCN(C(=O)c3ncnc(C)c3O)[C@@H]3CC[C@H]32)c(=O)c2nc(NC)cnc2n1CC(=O)Nc1ccc(C(F)(F)F)cc1Cl (single isomer, unassigned) [I-172, N-(2-chloro-4-(trifluoromethyl)phenyl)-2-(6-ethyl-7-(5-(5-hydroxy-6-methylpyrimidine-4-carbonyl)-2,5-diazabicyclo[4.2.0]octan-2-yl)-2-(methylamino)-8-oxopyrido[2,3-b]pyrazin-5(8H)-yl)acetamide]
5 to 50 nM	–	2000 to 5000 nM	CCc1c(N2CCN(C(=O)c3ncnc(C)c3O)CC2)c(=O)c2nc(N(C3CC3)C3CC3)cnc2n1CC(=O)Nc1ccc(C(F)(F)F)cc1Cl [I-179, N-[2-chloro-4-(trifluoromethyl)phenyl]-2-[2-(dicyclopropylamino)-6-ethyl-7-[4-(5-hydroxy-6-methylpyrimidine-4-carbonyl)piperazin-1-yl]-8-oxo-5H,8H-pyrido[2,3-b]pyrazin-5-yl]acetamide]
≤ 5 nM	–	< 500 nM	CCc1c(N2CCN(C(=O)c3ncnc(C)c3O)[C@H]3CC[C@@H]32)c(=O)c2nc(-c3ccnc(OC)c3)cnc2n1CC(=O)Nc1ccc(C(F)(F)F)cc1Cl [I-283, N-[2-chloro-4-(trifluoromethyl)phenyl]-2-{6-ethyl-7-[(1S,6S)-5-(5-hydroxy-6-methylpyrimidine-4-carbonyl)-2,5-diazabicyclo[4.2.0]octan-2-yl]-2-(2-methoxypyridin-4-yl)-8-oxo-5H,8H-pyrido[2,3-b]pyrazin-5-yl}acetamide]
5 to 50 nM	–	< 500 nM	CCc1c(N2CCN(C(=O)c3ncnc(C)c3O)[C@H]3CCC[C@@H]32)c(=O)c2nc(N(C)C)cnc2n1CC(=O)Nc1ccc(C(F)(F)F)cc1Cl [I-130, 2-{7-[(4aS,7aS)-4-(5-hydroxy-6-methylpyrimidine-4-carbonyl)-octahydro-1H-cyclopenta[b]pyrazin-1-yl]-2-(dimethylamino)-6-ethyl-8-oxo-5H,8H-pyrido[2,3-b]pyrazin-5-yl}-N-[2-chloro-4-(trifluoromethyl)phenyl]acetamide]
≤ 5 nM	–	500 to 2000 nM	CCc1c(N2CCN(C(=O)c3ncnc(C)c3O)CC2)c(=O)c2nc(/C=C/C3CCC3)cnc2n1CC(=O)Nc1ccc(C(F)(F)F)cc1Cl [I-144, N-[2-chloro-4-(trifluoromethyl)phenyl]-2-{2-[(1E)-2-cyclobutylethenyl]-6-ethyl-7-[4-(5-hydroxy-6-methylpyrimidine-4-carbonyl)piperazin-1-yl]-8-oxo-5H,8H-pyrido[2,3-b]pyrazin-5-yl}acetamide]
100 to 500 nM	–	> 5000 nM	CCc1c(N2CCN(C(=O)c3ncnc(C)c3O)[C@H]3CC[C@@H]32)c(=O)c2nc(N(C)C)cnc2n1CC(=O)NC12CC(C(F)(F)F)(C1)C2 [I-110, 2-(2-(dimethylamino)-6-ethyl-7-((1S,6S)-5-(5-hydroxy-6-methylpyrimidine-4-carbonyl)-2,5-diazabicyclo[4.2.0]octan-2-yl)-8-oxopyrido[2,3-b]pyrazin-5(8H)-yl)-N-(3-(trifluoromethyl)bicyclo[1.1.1]pentan-1-yl)acetamide]
≤ 5 nM	–	< 500 nM	CCc1c(N2CCN(C(=O)c3ncnc(C)c3O)[C@H]3CC[C@@H]32)c(=O)c2nc(N3CC[C@H]4C[C@H]43)cnc2n1CC(=O)Nc1ccc(C(F)(F)F)cc1Cl (single isomer, unassigned) [I-219]
50 to 100 nM	–	> 5000 nM	CCc1c(N2CCN(C(=O)c3ncnc(C)c3O)CC2)c(=O)c2nc(C(C)(C)O)cnc2n1CC(=O)Nc1ccc(C(F)(F)F)cc1Cl [I-84, N-(2-chloro-4-(trifluoromethyl)phenyl)-2-(6-ethyl-7-(4-(5-hydroxy-6-methylpyrimidine-4-carbonyl)piperazin-1-yl)-2-(2-hydroxypropan-2-yl)-8-oxopyrido[2,3-b]pyrazin-5(8H)-yl)acetamide]
5 to 50 nM	–	< 500 nM	CCc1c(N2CCN(C(=O)c3c(OC)ncc(C)c3O)[C@@H]3CCC[C@@H]32)c(=O)c2nc(N(C)C)cnc2n1CC(=O)Nc1ccc(C(F)(F)F)cc1Cl (single isomer, unassigned) [I-251, N-(2-chloro-4-(trifluoromethyl)phenyl)-2-(2-(dimethylamino)-6-ethyl-7-(4-(4-hydroxy-2-methoxy-5-methylnicotinoyl)octahydro-1H-cyclopenta[b]pyrazin-1-yl)-8-oxopyrido[2,3-b]pyrazin-5(8H)-yl)acetamide]
5 to 50 nM	–	2000 to 5000 nM	CCc1c(N2CCN(C(=O)c3ncnc(C)c3O)CC2)c(=O)c2nc(C=C3CCOCC3)cnc2n1CC(=O)Nc1ccc(C(F)(F)F)cc1Cl [I-36, N-(2-chloro-4-(trifluoromethyl)phenyl)-2-(6-ethyl-7-(4-(5-hydroxy-6-methylpyrimidine-4-carbonyl)piperazin-1-yl)-8-oxo-2-((tetrahydro-4H-pyran-4-ylidene)methyl)pyrido[2,3-b]pyrazin-5(8H)-yl)acetamide]
≤ 5 nM	–	< 500 nM	CCc1c(N2CCN(C(=O)c3ncnc(C)c3O)[C@H]3CC[C@@H]32)c(=O)c2nc(-c3cn[nH]c3)cnc2n1CC(=O)Nc1ccc(C(F)(F)F)cc1Cl [I-268, N-[2-chloro-4-(trifluoromethyl)phenyl]-2-{6-ethyl-7-[(1S,6S)-5-(5-hydroxy-6-methylpyrimidine-4-carbonyl)-2,5-diazabicyclo[4.2.0]octan-2-yl]-8-oxo-2-(1H-pyrazol-4-yl)-5H,8H-pyrido[2,3-b]pyrazin-5-yl}acetamide]
